Test results reported in ChEMBL document CHEMBL1124085, “Flavins as potential antimalarials. 1. 10-(Halophenyl)-3-methylflavins” (1988).

What was measured:
Mus musculus [1] = assay: Parenteral antimalarial activity against Plasmodium vinckei vinckei in mice (Mus musculus) measured as % cured and increase in MST (days) at 15 mg/kg dose; type: functional
Mus musculus [2] = assay: Parenteral antimalarial activity against Plasmodium vinckei in mice (Mus musculus) measured as % cured and increase in MST (days) at 20 mg/kg dose; type: functional
Mus musculus [3] = assay: Parenteral antimalarial activity against Plasmodium vinckei in mice (Mus musculus) measured as % cured and increase in MST (days) at 25 mg/kg dose; type: functional
Mus musculus [4] = assay: Oral antimalarial activity against Plasmodium vinckei in mice (Mus musculus) measured as % cured and increase in MST (days) at 25 mg/kg dose; type: functional
Mus musculus [5] = assay: Oral antimalarial activity against Plasmodium vinckei vinckei in mice (Mus musculus) measured as % cured and increase in MST (days) at 50 mg/kg dose; type: functional
Mus musculus [6] = assay: Oral antimalarial activity against Plasmodium vinckei in mice (Mus musculus) measured as % cured and increase in MST (days) at 75 mg/kg dose; type: functional
Mus musculus [7] = assay: Parenteral antimalarial activity against Plasmodium vinckei in mice (Mus musculus) measured as % cured and increase in MST (days) at 10 mg/kg dose; type: functional
Mus musculus [8] = assay: Oral antimalarial activity against Plasmodium vinckei vinckei in mice (Mus musculus) measured as % cured and increase in MST (days) at 100 mg/kg dose; type: functional
Mus musculus [9] = assay: Oral antimalarial activity against Plasmodium vinckei vinckei in mice (Mus musculus) measured as % cured and increase in MST (days) at 150 mg/kg dose; type: functional
Mus musculus [10] = assay: Parenteral antimalarial activity against Plasmodium vinckei in mice (Mus musculus) measured as increase in mean survival time at 20 mg/kg dose; Toxic; type: functional
Mus musculus [11] = assay: Parenteral antimalarial activity against Plasmodium vinckei in mice (Mus musculus) measured as increase in mean survival time at 25 mg/kg dose; Toxic; type: functional
Mus musculus [12] = assay: Parenteral antimalarial activity against Plasmodium vinckei in mice (Mus musculus) measured as increase in mean survival time at 10 mg/kg dose; type: functional
Mus musculus [13] = assay: Parenteral antimalarial activity against Plasmodium vinckei in mice (Mus musculus) measured as increase in mean survival time at 15 mg/kg dose; type: functional
Mus musculus [14] = assay: Oral antimalarial activity against Plasmodium vinckei in mice (Mus musculus) measured as increase in mean survival time at 100 mg/kg dose; type: functional
Mus musculus [15] = assay: Oral antimalarial activity against Plasmodium vinckei in mice (Mus musculus) measured as increase in mean survival time at 150 mg/kg dose; type: functional
Mus musculus [16] = assay: Oral antimalarial activity against Plasmodium vinckei in mice (Mus musculus) measured as increase in mean survival time at 25 mg/kg dose; type: functional
Mus musculus [17] = assay: Oral antimalarial activity against Plasmodium vinckei vinckei in mice (Mus musculus) measured as increase in mean survival time at 50 mg/kg dose; type: functional
Mus musculus [18] = assay: Oral antimalarial activity against Plasmodium vinckei vinckei in mice (Mus musculus) measured as increase in mean survival time at 75 mg/kg dose; type: functional
Mus musculus [19] = assay: Parenteral antimalarial activity against Plasmodium vinckei vinckei in mice (Mus musculus) measured as % cured and increase in MST (days) at 25 mg/kg dose.; type: functional
Mus musculus [20] = assay: Parenteral antimalarial activity against Plasmodium vinckei in mice (Mus musculus) measured as % cured and increase in MST (days) at 15 mg/kg dose.; type: functional
Mus musculus [21] = assay: Parenteral antimalarial activity against Plasmodium vinckei vinckei in mice (Mus musculus) measured as % cured and increase in MST (days) at 20 mg/kg dose.; type: functional
Mus musculus [22] = assay: Oral antimalarial activity against Plasmodium vinckei in mice (Mus musculus) measured as % cured and increase in MST (days) at 25 mg/kg dose.; type: functional
Mus musculus [23] = assay: Oral antimalarial activity against Plasmodium vinckei in mice (Mus musculus) measured as % cured and increase in MST (days) at 50 mg/kg dose.; type: functional
Mus musculus [24] = assay: Oral antimalarial activity against Plasmodium vinckei in mice (Mus musculus) measured as % cured and increase in MST (days) at 75 mg/kg dose.; type: functional
Mus musculus [25] = assay: Parenteral antimalarial activity against Plasmodium vinckei vinckei in mice (Mus musculus) measured as % cured and increase in MST (days) at 10 mg/kg dose.; type: functional
Mus musculus [26] = assay: Oral antimalarial activity against Plasmodium vinckei vinckei in mice (Mus musculus) measured as % cured and increase in MST (days) at 100 mg/kg dose.; type: functional
Mus musculus [27] = assay: Oral antimalarial activity against Plasmodium vinckei vinckei in mice (Mus musculus) measured as % cured and increase in MST (days) at 150 mg/kg dose.; type: functional
Mus musculus [28] = assay: Oral antimalarial activity against Plasmodium vinckei in mice (Mus musculus) measured as increase in mean survival time at 25 mg/kg dose.; type: functional
Mus musculus [29] = assay: Parenteral antimalarial activity against Plasmodium vinckei in mice (Mus musculus) measured as % cured and increase in MST (days) at 30 mg/kg dose.

Cn1c(=O)nc2n(-c3ccccc3Cl)c3ccccc3nc-2c1=O
Cured (Mus musculus [1]): 0% | Cured (Mus musculus [2]): 0% | Cured (Mus musculus [3]): 0% | Cured (Mus musculus [4]): 0% | Cured (Mus musculus [5]): 0% | Cured (Mus musculus [6]): 0% | Cured (Mus musculus [7]): 0% | Cured (Mus musculus [8]): 0% | Cured (Mus musculus [9]): 0% | MST (Mus musculus [10]): -0.2 days | MST (Mus musculus [11]): -1.4 days | MST (Mus musculus [12]): 0 days | MST (Mus musculus [13]): 0 days | MST (Mus musculus [14]): 0 days | MST (Mus musculus [15]): 0 days | MST (Mus musculus [16]): 0 days | MST (Mus musculus [17]): 0 days | MST (Mus musculus [18]): 0 days

Cn1c(=O)nc2n(-c3cc(Cl)cc(Cl)c3)c3ccccc3nc-2c1=O
Cured (Mus musculus [19]): 100% | Cured (Mus musculus [20]): 100% | Cured (Mus musculus [21]): 100% | Cured (Mus musculus [22]): 60% | Cured (Mus musculus [23]): 100% | Cured (Mus musculus [24]): 100% | Cured (Mus musculus [25]): 100% | Cured (Mus musculus [26]): 100% | Cured (Mus musculus [27]): 100% | MST (Mus musculus [28]): 3.5 days | Cured (Mus musculus [29]): 100%
